One data set has as its system anesthetized rats. The data set can be described thus: Anti-arrhythmic activity in anesthetized rats (benzene/adrenaline challenge, EKG recording). Type of data set: in vivo, Male Sprague-Dawley rats. As to conditions: for protection against tachyarrhythmia (increased heart rate) produced by adrenaline: potency: drug administered from time 0 to time 120 minutes; for time at which activity against VPB is lost: drug administration time 0 to 120 min; for PR interval / QRS interval / QT interval / Heart rate (beats/minute) / Inhibition of tachycardia / Number of VPB / Inhibition of VPB: isolated enantiomer as compared to the respective racemate; for PR interval / QRS interval / QT interval: EKG; for Number of VPB / Inhibition of VPB: benzene/adrenaline challenge; for Inhibition of VPB: 4 mg/kg i.v. then 12 mg/kg/h for 2 hours; for activity against VPB at the end of the washout period: time 180 min; for inhibition of the formation of ventricular premature beats (VPB): whole period of drug administration (time 0 to 120 min). The procedure:
Male Sprague-Dawley rats with body weights of 410 ± 30 g (Harlan Sprague Dawley Inc., Indianapolis, IN), were anesthetized with sodium pentobarbital (50 mg/kg i.p. - Butler Co., Columbus, OH). The skin from the neck area was removed and the jugular veins on both sides were cleared of connective tissue. Both jugular veins and the left carotid artery were isolated, and the latter tied up cranially with a surgical silk (ETHICON 4-0, Ethicon Inc., Australia). A plastic catheter ([…] 19ga, Vecton Dickinson, Sandy, UT), filled with a solution containing 10% sodium heparin (Elkins-Sinn Inc., Cherry Hill, NJ) in normal saline (100 U/ml sodium heparin), was introduced into the artery and fixed with surgical silk.
The catheter was connected to a pressure transducer (OHMEDA P23-XL, Ohmeda Medical Devices Division Inc., Madison, WI), filled with the same heparinized 0.9% NaCl solution, to register beat-to-beat arterial pressure. Needle electrodes were inserted s.c., and together with the pressure transducer, were joined to a GOULD TA 2000 recorder. Leads II, aVF and intraarterial blood pressure were monitored simultaneously throughout the experiments and recorded at certain intervals at 50 and 200 mm/sec paper speed.
The surgery was completed with an incision on the trachea where a short plastic tubing was placed and the animal was connected to a rodent-model ventilator (HARVARD Model 683, Harvard Apparatus, Inc., Holliston, MA). The animals were ventilated in a controlled way, depending on their spontaneous breathing frequency (55-75/min).
Drug administrations were carried out through i.v. catheters (TERUMO 24 GA*3/4", Terumo Medical Corp., Elkton, MD) inserted into both jugular veins. The left side was used for drug infusions by means of a syringe pump (SAGE INSTRUMENTS, Model 341B, Orion Res. Inc., Boston, MA), and the right side was used for adrenaline injections. The experiments were started after at least 15 minutes of stabilization. Benzene/adrenaline challenges were performed as follows: the respirator inlet was connected to a 50-ml bubbler half-full with benzene (Fisher Scientific, Fair Lawn, NJ) so that the inspired air was saturated with benzene vapor. The animal was ventilated with benzene vapor for two minutes. The tidal volume was typically 1 ml/100g of animal. During the last 30 seconds of benzene ventilation, 10 µg/kg adrenaline solution (in 0.9% NaCl) was injected into the right jugular vein. […] These arrhythmias could be elicited repeatedly. After three control VTs (at -30, -20 and -10 minutes), the test compounds were injected slowly during 30 seconds at a dose of 4 mg/kg i.v., immediately followed by a slow infusion of 12 mg/kg/h for 2 hours. The flow rate during the infusion period was 1 ml/h.
There were 5 rats per test compound and each animal served as its own control. The ability of the different drugs to suppress arrhythmias was tested against repeated benzene/adrenaline challenges at 5, 15, 30, 45, 60, 90, 120 (end of drug infusion), 135, 150, 165 and 180 minutes after the i.v. bolus injection. The amplitudes of the systolic arterial pressure and diastolic arterial pressure […] with the help of a pressure-amplitude calibration curve. Heart rate, number of ventricular complexes during the occurrence of VTs and VPBs, and certain ECG parameters (PR, QRS, QT durations and RR cycle lengths in msec) were also recorded and measured manually. At each time-point, 3-5 cycles were measured and the average values were entered into EXCEL Windows 97. The average and standard deviation for the five experimental animals per compound were calculated.

Data set [1] is classed as in vitro ADME. As to conditions: human. The method, then: Venous blood (60 ml) was collected in heparinized 15-ml Vacutainer® tubes from the forearm of five human volunteers. Each tube contained 1,000 units of heparin sodium salt. The blood was immediately centrifuged at 2,000 g for 10 minutes and the plasma was collected. Immediately after collection, the plasma was divided into 2-ml aliquots in borosilicate glass tubes (5-ml capacity) capped with a plastic stopper. The tubes were then equilibrated in a 37°C-water bath for at least 15 minutes before the test samples were added.
Stock solutions were prepared by dissolving 25 µmoles (about 18 mg) of each of the test compounds in 10 ml of deionized water. To each of the glass tubes containing 2 ml of fresh plasma, equilibrated at 37°C, was added 40 µl of the stock solutions (one test compound per tube). The plasma/stock solutions were then mixed. Samples (250 µl) were collected at time 0 (immediately after mixing test compounds in plasma) and then at 30, 60, 90, 120, 180, 240, and 300 minutes. The test tubes were capped, to avoid concentration due to evaporation, and left in the 37°C bath during the entire experiment. Each aliquot was immediately introduced into a 1.5-ml microfuge tube containing 20 µl of a 0.01% solution of diethyl paranitrophenylphosphate (paraoxon) in ethanol in order to inhibit esterase activity. The tubes were then capped and vortexed, then kept at -20°C until analysis. The samples were thawed and mixed with 750 µl of a 0.1 % solution of trifluoroacetic acid (TFA) in acetonitrile, vortexed for thorough mixing, and then centrifuged at 12,000 g for 15 minutes. The supernatant was collected for injection in the HPLC system.
The HPLC mobile phase consisted of acetonitrile and water containing 0.1% TFA and 400 mg/L benzyltriethylammonium chloride (BTEAC) in the following proportions and flow rates: 85% acetonitrile and 15% water at 2.0 ml/min. The detection wavelength was set at 242 nm, and the injected volume was 100 µL. The HPLC peaks were recorded, and the integrated values were plotted against time using the SIGMAPLOT software version 4.0 for WINDOWS. The resulting curves were fitted to a first-order exponential decay equation from which hydrolysis half-lives were calculated.

Structures are written as SMILES.

For the molecule `CC[C@H](C)OC(=O)Cc1oc2ccccc2c1C(=O)c1cc(I)c(OCCN(CC)CC)c(I)c1` [ATI-2042], the “protection against tachyarrhythmia (increased heart rate) produced by adrenaline: potency” value with anesthetized rats is “very good protection against this tachyarrhythmia”.

As for `CCN(CC)CCOc1c(I)cc(C(=O)c2c(CC(=O)OC(C)C(C)C)oc3ccccc23)cc1I` (stereo not drawn) [ATI-2055], the “protection against tachyarrhythmia (increased heart rate) produced by adrenaline: potency” value in the data set with anesthetized rats is reported as “inhibits the tachycardia”.

On to `CC[C@@H](C)OC(=O)Cc1oc2ccccc2c1C(=O)c1cc(I)c(OCCN(CC)CC)c(I)c1` [Compound R-2042, (R)-sec-Butyl 2-[3-(3,5-diiodo-4-(2-diethylaminoethyloxy)benzoyl)]benzofurane-acetate], for which the “time at which activity against VPB is lost” value in the data set with anesthetized rats (benzene vapors and adrenaline) is listed as around 100 min. For the same molecule, in the data set on anesthetized rats, the PR interval result is “shorter”, the QRS interval result is listed as “no change”, the QT interval result was “no change” and the “Number of VPB” value was “lower”. In addition, in the data set with anesthetized rats, the “Inhibition of VPB” value is “longer” and the “activity against VPB at the end of the washout period” value (“activity against VPB at the end” for short) was “completely inactive”. In the data set with anesthetized rats (adrenaline injection), the “Heart rate (beats/minute)” value is “lower” and the Inhibition of tachycardia entry was “longer”. The “Plasma half-life” value in data set [1] came to 5.0 h.

For the molecule `CCN(CC)CCOc1c(I)cc(C(=O)c2c(CC(=O)O[C@H](C)C(C)C)oc3ccccc23)cc1I` [Compound R-2055, (R)-(3-Methyl)-2butyl 2-[3-(3,5-diiodo-4-(2-diethylaminoethyloxy)benzoyl)]benzo-furaneacetate], in the data set with anesthetized rats (adrenaline injection), the “duration of effect on tachycardia” value is “longer-lasting effect than S-2055”, the “Heart rate (beats/minute)” value is “lower” and the Inhibition of tachycardia entry is given as “longer”. Also, in the data set on anesthetized rats, the PR interval entry is “shorter”, the QRS interval result was “longer”, the QT interval result is recorded as “no change” and the “Number of VPB” value is “lower”. Besides, in the data set with anesthetized rats, the “Inhibition of VPB” value is “longer” and the “activity against VPB at the end” value was “still retained part of its activity”. In the data set on anesthetized rats (benzene vapors and adrenaline), the “inhibition of the formation of ventricular premature beats (VPB)” value was “totally inhibited the formation of ventricular premature beats”. Further, the “Plasma half-life” value in data set [1] came out at 11.7 h.

As for `CC[C@H](C)OC(=O)Cc1oc2ccccc2c1C(=O)c1cc(I)c(OCCN(CC)CC)c(I)c1` [Compound S-2042, (S)-sec-Butyl 2-[3-(3,5-diiodo-4-(2-diethylaminoethytoxy)benzoyl)]benzofurane-acetate], in the data set with anesthetized rats, the “protection against tachyarrhythmia (increased heart rate) produced by adrenaline: potency” value was “more potent and longer acting then R-2042”; the PR interval entry is reported as “longer”; the QRS interval result was “longer”; the QT interval result is on record as “longer”. Moreover, in the data set with anesthetized rats, the “Number of VPB” value is listed as “lower”, the “Inhibition of VPB” value is listed as “longer” and the “activity against VPB at the end” value is recorded as “still retained part of its activity”. Further, in the data set on anesthetized rats (adrenaline injection), the “Heart rate (beats/minute)” value is “lower” and the Inhibition of tachycardia entry is “longer”. Also, in the data set on anesthetized rats (rat, in vivo), the “effects on the PR segment of the EKG recording (Class-IV activity): potency” value was “much more potent than R-2042 and the racemate R,S-2042”; the “effects on the QT segment of the EKG recording (Class-III properties): potency” value is “the most potent and the longest acting”. In the data set on anesthetized rats (benzene vapors and adrenaline), the “inhibition of the formation of ventricular premature beats (VPB)” value is listed as “totally inhibited the formation of ventricular premature beats”. In addition, in data set [1], the “Plasma half-life” value came out at 7.3 h.

On to `CCN(CC)CCOc1c(I)cc(C(=O)c2c(CC(=O)O[C@@H](C)C(C)C)oc3ccccc23)cc1I` [Compound S-2055, (S) - (3 - Methyl) - 2 butyl 2-[3-(3,5-diiodo-4-(2-diethylaminoethyloacy)benzoyl)]benzo-furaneacetate], for which the “time at which activity against VPB is lost” value with anesthetized rats (benzene vapors and adrenaline) is recorded as around 40 min. Moreover, in the data set with anesthetized rats, the PR interval entry is listed as “shorter”, the QRS interval result was “longer”, the QT interval result is reported as “no change” and the “Number of VPB” value was “lower”. In addition, in the data set with anesthetized rats, the “Inhibition of VPB” value is on record as “longer” and the “activity against VPB at the end” value is “completely inactive”. For the same molecule, in the data set on anesthetized rats (adrenaline injection), the “Heart rate (beats/minute)” value is “lower” and the Inhibition of tachycardia result is “longer”. Also, in data set [1], the “Plasma half-life” value was 8.8 h.

Take `CC[C@H](C)OC(=O)Cc1oc2ccccc2c1C(=O)c1cc(I)c(OCCN(CC)CC)c(I)c1` [R,S-2042]: the “activity against VPB of the racemate relative to the enantiomers” value with anesthetized rats (benzene vapors and adrenaline) was “even less active than either the R- or the S-isomer”. The “protection against tachyarrhythmia (increased heart rate) produced by adrenaline: potency” value with anesthetized rats was “the least potent and shortest acting”.

(Values after patent publication EP1857450A1, “Novel enantiomeric compounds for treatment of cardiac arrhythmias and methods of use” (Aryx Therapeutics, priority 1999, dated 2001).)
